Results from patent publication US20100331298A1, “Carboxamide Compounds and Their Use” (CytoPathfinder, Inc., priority 2007, published 2010).
Structures can show the parent of a compound that is named as a salt.

The compounds below were run against T1, CCR2b (Homo sapiens, UniProt P41597) (assay: AequoScreen assay, Ca++ flux (antagonist mode against reference agonist MCP-1)). Conditions: AequoScreen CCR2b (FAST-060A) cells; inhibition of reference agonist MCP-1 at its EC80.
T1 construct: host or cells: AequoScreen CCR2b cells
T1 sequence (P41597 1-360 isoform P41597-2): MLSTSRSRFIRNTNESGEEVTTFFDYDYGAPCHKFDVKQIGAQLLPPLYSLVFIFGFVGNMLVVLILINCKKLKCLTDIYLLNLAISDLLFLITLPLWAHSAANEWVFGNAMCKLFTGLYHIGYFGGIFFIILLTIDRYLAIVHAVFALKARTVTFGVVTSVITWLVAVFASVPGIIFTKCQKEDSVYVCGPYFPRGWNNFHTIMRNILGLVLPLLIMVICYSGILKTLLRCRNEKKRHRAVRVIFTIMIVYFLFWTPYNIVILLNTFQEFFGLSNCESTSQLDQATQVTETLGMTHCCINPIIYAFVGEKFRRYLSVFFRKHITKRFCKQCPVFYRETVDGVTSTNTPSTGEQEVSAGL
Type: cell-based
Protocol: The biological activity of the compounds described herein can be evaluated using assays known in the art, such as the AequoScreen™ assay.
AequoScreen™ CCR2b (FAST-060A) cells grown to mid-log phase in culture media without antibiotics are detached with PBS-EDTA, centrifuged and resuspended in assay buffer (DMEM/HAM's F12 with HEPES, without phenol red+0.1% BSA protease free) at a concentration of 1×10^6 cells/mL. Cells are incubated at room temperature for at least 4 hours with coelenterazine h. Dose response curves are performed before testing. The reference agonist is MCP-1.
For agonist testing, 50 μL of cell suspension is mixed with 50 μL of test compound in a 96-well plate. The resulting emission of light is recorded using a Hamamatsu Functional Drug Screening System 6000 (FDSS 6000).
Following an incubation of 15 minutes after the first injection, 100 μL of the resulting cell suspension containing the test compound is mixed with 100 μL of the reference agonist in the 96 well test plate. The resulting emission of light is recorded using the same luminometer as for agonist testing.
To standardize the emission of recorded light (determination of the “100% signal”) across plates and across different experiments, some of the wells contained 100 μM digitonin, a saturating concentration of ATP (20 μM) and a concentration of reference agonist equivalent to the EC50 obtained during test validation.
Agonist activity of a test compound can be expressed as a percentage of the activity of the reference agonist at its EC100 concentration. Antagonist activity of a test compound can be expressed as a percentage of the inhibition of reference agonist activity at its EC80) concentration.

`Cn1c(=O)oc2ccc(CN3CCC(CC4CC4)(C(=O)NCc4cc(C(F)(F)F)cc(C(F)(F)F)c4)CC3)cc21` [Example 26, N-(3,5-Bis(trifluoromethyl)benzyl)-4-(cyclopropylmethyl)-1-((3-methyl-2-oxo-2,3-dihydrobenzo[d]oxazol-5-yl)methyl)piperidine-4-carboxamide] and `CN1C(=O)COc2ccc(CN3CCC(CC4CC4)(C(=O)NCc4cc(C(F)(F)F)cc(C(F)(F)F)c4)CC3)cc21` [Example 27, N-(3,5-Bis(trifluoromethyl)benzyl)-4-(cyclopropylmethyl)-1-((4-methyl-3-oxo-3,4-dihydro-2H-benzo[b][1,4]oxazin-6-yl)methyl)piperidine-4-carboxamide] fall in the same range of IC50: 0.2 to 1 µM for the first, 0.2 to 1 µM for the second.

`O=C(NCc1cc(C(F)(F)F)cc(C(F)(F)F)c1)C1(CC2CC2)CCN(Cc2ccc3nc[nH]c3c2)CC1` [Example 19, 1-((1H-Benzo[d]imidazol-6-yl)methyl)-N-(3,5-bis(trifluoromethyl)benzyl)-4-(cyclopropylmethyl)piperidine-4-carboxamide] and `O=C1COc2ccc(C(O)CN3CCC(CC4CC4)(C(=O)NCc4cc(C(F)(F)F)cc(C(F)(F)F)c4)CC3)cc2N1` (stereo not drawn) [Example 5, N-(3,5-Bis(trifluoromethyl)benzyl)-4-(cyclopropylmethyl)-1-(2-hydroxy-2-(3-oxo-3,4-dihydro-2H-benzo[b][1,4]oxazin-6-yl)ethyl)piperidine-4-carboxamide] cannot be ordered by IC50: greater than 1 µM for the first, greater than 1 µM for the second.

Going from `O=C(NCc1cc(C(F)(F)F)cc(C(F)(F)F)c1)C1(CC2CC2)CCN(Cc2ccc3cc[nH]c(=O)c3c2)CC1` [Example 8, N-(3,5-Bis(trifluoromethyl)benzyl)-4-(cyclopropylmethyl)-1-((1-oxo-1,2-dihydroisoquinolin-7-yl)methyl)piperidine-4-carboxamide] to “N-(3,5-Bis(trifluoromethyl)benzyl)-4-(cyclopropylmethyl)-1-((3-methyl-2-oxo-2,3-dihydrobenzo[d]thiazol-6-yl)methyl)piperidine-4-carboxamide TFA salt [Example 25]”, the IC50 falls from greater than 1 µM to less than 0.2 µM.

Going from `CC(C)CC1(C(=O)NCc2cc(C(F)(F)F)cc(C(F)(F)F)c2)CCN(Cc2ccc3c(c2)nnn3C)CC1` [Example 18, N-(3,5-Bis(trifluoromethyl)benzyl)-4-isobutyl-1-((1-methyl-1H-benzo[d][1,2,3]triazol-5-yl)methyl)piperidine-4-carboxamide] to `Cn1c(=O)ccc2ccc(CN3CCC(CC4CC4)(C(=O)NCc4cc(C(F)(F)F)cc(C(F)(F)F)c4)C3)cc21` (stereo not drawn) [Example 20, N-(3,5-Bis(trifluoromethyl)benzyl)-3-(cyclopropylmethyl)-1-((1-methyl-2-oxo-1,2-dihydroquinolin-7-yl)methyl)pyrrolidine-3-carboxamide], the IC50 falls from greater than 1 µM to less than 0.2 µM.

Compared with `Cn1c(=O)ccc2ccc(CN3CCC(C(=O)NCc4cc(C(F)(F)F)cc(C(F)(F)F)c4)(C4CC4)CC3)cc21` [Example 3, N-(3,5-Bis(trifluoromethyl)benzyl)-4-cyclopropyl-1-((1-methyl-2-oxo-1,2-dihydroquinolin-7-yl)methyl)piperidine-4-carboxamide], `COCC1(C(=O)N2CC(c3cc(C(F)(F)F)ccn3)C2)CCN(Cc2ccc3oc(=O)n(C)c3c2)C1` (stereo not drawn) [Example 28, 5-((3-(Methoxymethyl)-3-(3-(4-(trifluoromethyl)pyridin-2-yl)azetidine-1-carbonyl)pyrrolidin-1-yl)methyl)-3-methylbenzo[d]oxazol-2(3H)-one] is lower in IC50: greater than 1 µM for the first, 0.2 to 1 µM for the second.

`O=C1COc2ccc(CN3CCC(CC4CC4)(C(=O)NCc4cc(C(F)(F)F)cc(C(F)(F)F)c4)CC3)cc2N1` [Example 6, N-(3,5-Bis(trifluoromethyl)benzyl)-4-(cyclopropylmethyl)-1-((3-oxo-3,4-dihydro-2H-benzo[b][1,4]oxazin-6-yl)methyl)piperidine-4-carboxamide] and `O=C1COc2ccc(CCN3CCC(CC4CC4)(C(=O)NCc4cc(C(F)(F)F)cc(C(F)(F)F)c4)CC3)cc2N1` [Example 10, N-(3,5-Bis(trifluoromethyl)benzyl)-4-(cyclopropylmethyl)-1-(2-(3-oxo-3,4-dihydro-2H-benzo[b][1,4]oxazin-6-yl)ethyl)piperidine-4-carboxamide] cannot be ordered by IC50: greater than 1 µM for the first, greater than 1 µM for the second.

First: CC(C)CC1(C(=O)NCc2cc(C(F)(F)F)cc(C(F)(F)F)c2)CCN(Cc2ccc3c(c2)OCCN3C)CC1 [Example 17, N-(3,5-Bis(trifluoromethyl)benzyl)-4-isobutyl-1-((4-methyl-3,4-dihydro-2H-benzo[b][1,4]oxazin-7-yl)methyl)piperidine-4-carboxamide]
Second: Cn1c(=O)oc2ccc(CN3CCC(CC4CC4)(C(=O)NCc4cc(C#N)cc(C(F)(F)F)c4)C3)cc21 (stereo not drawn) [Example 24, N-(3-Cyano-5-(trifluoromethyl)benzyl)-3-(cyclopropylmethyl)-1-((3-methyl-2-oxo-2,3-dihydrobenzo[d]oxazol-5-yl)methyl)pyrrolidine-3-carboxamide HCl salt]
The IC50 of the first is higher: greater than 1 µM for the first, less than 0.2 µM for the second. The second is the more potent here.

First: COCC1(C(=O)N2CCN(c3cc(C(F)(F)F)ccn3)CC2)CCN(Cc2ccc3oc(=O)n(C)c3c2)C1 (stereo not drawn) [Example 29, 5-((3-(Methoxymethyl)-3-(4-(4-(trifluoromethyl)pyridin-2-yl)piperazine-1-carbonyl)pyrrolidin-1-yl)methyl)-3-methylbenzo[d]oxazol-2(3H)-one]
Second: O=C(NCc1cc(C(F)(F)F)cc(C(F)(F)F)c1)C1(CC2CC2)CCN(Cc2ccc3ccc(=O)[nH]c3c2)CC1 [Example 11, N-(3,5-Bis(trifluoromethyl)benzyl)-4-(cyclopropylmethyl)-1-((2-oxo-1,2-dihydroquinolin-7-yl)methyl)piperidine-4-carboxamide]
The IC50 of the first is lower: 0.2 to 1 µM for the first, greater than 1 µM for the second.

`Cn1c(=O)ccc2ccc(CN3CCC(CC4CC4)(C(=O)NCc4cc(C(F)(F)F)cc(C(F)(F)F)c4)CC3)cc21` [Example 1, N-(3,5-Bis(trifluoromethyl)benzyl)-4-(cyclopropylmethyl)-1-((1-methyl-2-oxo-1,2-dihydroquinolin-7-yl)methyl)piperidine-4-carboxamide] and `O=C(NCc1cc(C(F)(F)F)cc(C(F)(F)F)c1)C1(CC2CC2)CCN(Cc2ccc3[nH]ncc3c2)C1` (stereo not drawn) [Example 21, 1-((1H-Indazol-5-yl)methyl)-N-(3,5-bis(trifluoromethyl)benzyl)-3-(cyclopro-pylmethyl)pyrrolidine-3-carboxamide dihydrochloride] cannot be ordered by IC50: less than 0.2 µM for the first, less than 0.2 µM for the second.

First: Cn1c(=O)ccc2ccc(CN3CCC(CC4CC4)(C(=O)NCc4cc(C#N)cc(C(F)(F)F)c4)C3)cc21 (stereo not drawn) [Example 23, N-(3-Cyano-5-(trifluoromethyl)benzyl)-3-(cyclopropylmethyl)-1-((1-methyl-2-oxo-1,2-dihydroquinolin-7-yl)methyl)pyrrolidine-3-carboxamide TFA salt]
Second: O=C1COc2ccc(CN3CCC(CC4CC4)(C(=O)NCc4cc(C(F)(F)F)cc(C(F)(F)F)c4)C3)cc2N1 (stereo not drawn) [Example 22, N-(3,5-Bis(trifluoromethyl)benzyl)-3-(cyclopropylmethyl)-1-((3-oxo-3,4-dihydro-2H-benzo[b][1,4]oxazin-6-yl)methyl)pyrrolidine-3-carboxamide]
The IC50 of the first is lower: less than 0.2 µM for the first, 0.2 to 1 µM for the second.

With `O=C(NCc1cc(C(F)(F)F)cc(C(F)(F)F)c1)C1(CC2CC2)CCN(Cc2cccc3c(=O)[nH]ccc23)CC1` [Example 9, N-(3,5-Bis(trifluoromethyl)benzyl)-4-(cyclopropylmethyl)-1-((1-oxo-1,2-dihydroisoquinolin-5-yl)methyl)piperidine-4-carboxamide] the IC50 was 0.2 to 1 µM.
